Experimental data reported in patent US20040029773A1, “Use of 1-ebio in the treatment of bipolar disorders” (priority 2000, published 2004).

What was measured:
[1] = test system: amphetamine/chlordiazepoxide-induced hyperactivity in mice; conditions: previous validation studies (literature); cited from earlier work
[2] = test system: amphetamine/chlordiazepoxide-induced hyperactivity in mice; assay: amphetamine/chlordiazepoxide-induced hyperactivity, rodent model of mania (locomotor activity); conditions: 150 mg/kg i.p., data not shown

SMILES: CCCC(CCC)C(=O)[O-].[Na+] [sodium valproate]
- behaviour induced by amphetamine plus chlordiazepoxide [1]: can be ameliorated
- amphetamine/chlordiazepoxide-induced hyperactivity [2]: can be prevented
